Measured values as given in the supplement of paper PMC11208160.

Test: recombinant barcode read abundance after kanamycin selection (control-corrected) (log10(CPM+1)); higher = more efficient recombination; sequences stand for … in AGTGCAGAGAAAATCGGCCAGTTTTCTCTGCCTGCAGTCCGCATGCCGT…AGATTTATGCAGCGGACTGCCTTTCTCCCAAAGTGATAAACCGGACAGTATCATGGACCGGTTTTCCCGGTAATCCGTATTTGCAAGGTTGGTTTCACT; site = the 11-nt target
Outline: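 Reported as log10(CPM+1), each value stands for recombination efficiency. That efficiency is the averaged, control-corrected counts per million of barcodes found at recombinant junctions. Cells from a pooled E. coli library pairing targets with IS621 bridge RNA target-binding loops were plated twice on chloramphenicol/ampicillin LB agar (control) and twice on chloramphenicol/ampicillin/kanamycin with 0.1 mM IPTG.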
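Also: IS621 recombinase and bridge RNA in Escherichia coli cells.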

Row | Sequence | recombinant barcode read abundance (log10)
1 | GAACAGCCTTGGGTTCTAACCTGTTGCGT (site ATTGCTACTTG) | 0.278
2 | GAACAGCCTTGGGTTCTAACCTGTTGCGT (site GAACAGCCTAC) | 0.943
3 | GAACCACCTTGGGTTCTAACCTGTTGCCT (site GAACCACCTAG) | 1.75
4 | GAACCACCTTGGGTTCTAACCTGTTGCCT (site TCACCACCTAG) | 0.133
5 | GAACCTACTTGGGTTCTAACCTGTTGCCG (site GAACCTACTCG) | 0.583
6 | GAACCTACTTGGGTTCTAACCTGTTGCCG (site GAGCCTACTAG) | 0.172
7 | GAACCTACTTGGGTTCTAACCTGTTGCGA (site GAACCTACTCC) | 0.0825
8 | GAACCTACTTGGGTTCTAACCTGTTGCGA (site GAACCTACTTC) | 1.87
9 | GAACCTCCTTGGGTTCTAACCTGTTGCAT (site GAACCTCCTAT) | 1.94
10 | GAACCTCCTTGGGTTCTAACCTGTTGCAT (site TGCGTAACTTG) | 0.0548
11 | GAACGACCTTGGGTTCTAACCTGTTGCTG (site GAACGACCTAA) | 0.0602
12 | GAACGACCTTGGGTTCTAACCTGTTGCTG (site GAACGACCTCA) | 1.16
13 | GAACGATCTTGGGTTCTAACCTGTTGCCT (site GAACCTTCTAG) | 0.148
14 | GAACGATCTTGGGTTCTAACCTGTTGCCT (site GAACGATCTAG) | 0.397
15 | GAACGCTCTTGGGTTCTAACCTGTTGCCA (site AGGTCTACTAA) | 0.0972
16 | GAACGCTCTTGGGTTCTAACCTGTTGCCA (site GAACGCTCTTG) | 0.265

Row | Sequence | recombinant barcode read abundance (log10)
17 | GAACTTGCTTGGGTTCTAACCTGTTGCCT (site GAACTTGCTAG) | 1.24
18 | GAACTTGCTTGGGTTCTAACCTGTTGCCT (site GCCCTTGCTAG) | 0.176
19 | GAAGAGACTTGGGTTCTAACCTGTTGCCT (site GAAAACACTAG) | 0.0941
20 | GAAGAGACTTGGGTTCTAACCTGTTGCCT (site GAAGAGACTAG) | 1.57
21 | GAAGCATCTTGGGTTCTAACCTGTTGCCT (site GAAGCATCTAG) | 1.54
22 | GAAGCATCTTGGGTTCTAACCTGTTGCCT (site GATGCCTCTAG) | 0.123
23 | GAAGGGCCTTGGGTTCTAACCTGTTGCCT (site GAAGAGCCTAG) | 0.202
24 | GAAGGGCCTTGGGTTCTAACCTGTTGCCT (site GAAGCGCCTAG) | 0.225
25 | GAAGGGCCTTGGGTTCTAACCTGTTGCCT (site GAAGGGCCTAG) | 0.723
26 | GAAGGGCCTTGGGTTCTAACCTGTTGCCT (site GAAGTGCCTAG) | 0.0531
27 | GAAGTACCTTGGGTTCTAACCTGTTGCCT (site AAAGTACCTAG) | 0.881
28 | GAAGTACCTTGGGTTCTAACCTGTTGCCT (site CAAGTACCTAG) | 0.275
29 | GAAGTACCTTGGGTTCTAACCTGTTGCCT (site GAAGTACCTAG) | 1.92
30 | GAAGTACCTTGGGTTCTAACCTGTTGCCT (site TAAGTACCTAG) | 0.873
31 | GAAGTCACTTGGGTTCTAACCTGTTGCCT (site GAAGTCACTAG) | 1.99
32 | GAAGTCACTTGGGTTCTAACCTGTTGCCT (site TAAGTCACTAG) | 1.6
